How the values were obtained:
KDM4A = target: T1, KDM4A (Homo sapiens, UniProt O75164); assay: Denaturing MS covalent adduct formation with KDM4A; format: binding; conditions: enzyme 20 μM, Fe(II) 30 μM, compound 30 μM, 37 °C, 4 h
T1 sequence (O75164 1-1064): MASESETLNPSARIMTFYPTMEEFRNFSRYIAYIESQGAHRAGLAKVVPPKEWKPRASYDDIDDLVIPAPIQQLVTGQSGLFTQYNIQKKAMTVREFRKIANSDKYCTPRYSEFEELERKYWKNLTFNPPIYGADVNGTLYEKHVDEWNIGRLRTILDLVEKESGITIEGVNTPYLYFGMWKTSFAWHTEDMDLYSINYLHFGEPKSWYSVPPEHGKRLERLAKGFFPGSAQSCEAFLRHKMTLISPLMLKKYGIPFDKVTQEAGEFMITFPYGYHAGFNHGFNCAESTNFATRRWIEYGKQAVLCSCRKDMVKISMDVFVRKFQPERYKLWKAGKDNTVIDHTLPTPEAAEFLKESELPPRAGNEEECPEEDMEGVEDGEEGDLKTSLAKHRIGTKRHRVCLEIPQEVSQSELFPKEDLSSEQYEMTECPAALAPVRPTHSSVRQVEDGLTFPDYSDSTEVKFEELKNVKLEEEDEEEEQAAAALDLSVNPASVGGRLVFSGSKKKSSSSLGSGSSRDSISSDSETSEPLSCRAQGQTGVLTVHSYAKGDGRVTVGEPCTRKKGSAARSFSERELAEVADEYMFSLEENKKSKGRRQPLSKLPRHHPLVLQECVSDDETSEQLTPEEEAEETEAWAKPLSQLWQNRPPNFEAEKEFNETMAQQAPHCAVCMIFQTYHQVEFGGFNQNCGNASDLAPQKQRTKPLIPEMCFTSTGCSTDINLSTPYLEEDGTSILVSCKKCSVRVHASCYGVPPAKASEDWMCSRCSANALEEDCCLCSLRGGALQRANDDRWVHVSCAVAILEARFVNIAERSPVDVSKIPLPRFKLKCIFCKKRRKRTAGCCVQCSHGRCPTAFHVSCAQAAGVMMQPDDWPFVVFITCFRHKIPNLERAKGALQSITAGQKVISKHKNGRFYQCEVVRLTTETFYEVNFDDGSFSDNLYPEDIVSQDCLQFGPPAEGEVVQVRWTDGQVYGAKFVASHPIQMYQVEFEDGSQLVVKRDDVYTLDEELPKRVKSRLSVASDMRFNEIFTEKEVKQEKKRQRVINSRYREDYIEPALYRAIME
Text: Ligands that covalently modify proteins are used for activity-based profiling by functionalisation with an appropriate handle.[20] […] This method for incorporation of a photoreactive group near the active site of a protein to enable substrate capture is complementary to ‘photoreactive site directed mutagenesis’.[21],[22] Azide 7 was designed for use as a tag to allow ‘click’ conjugation with a handle (e.g. biotin) for activity-based profiling, or as a photoreactive aryl azide for substrate capture. […] There is scope for optimisaiton and broader application of the approach described here. […] Work toward the application of 7 and derivatives in protein profiling and substrate capture in cells is ongoing.
HeLa cells were treated with the […]

PHD2_181–402 = target: T2, PHD2_181–402 (Homo sapiens, UniProt Q9GZT9); assay: Non-denaturing ESI-MS crosslinking, C-terminal truncated PHD2; format: binding; conditions: equimolar Fe(II) and compound, 3 h, 37 °C, 200 V
T2 construct: C-terminal truncated PHD2 (PHD2_181–402); His6 (N, cleaved yes); made in house; host or cells: bacterial culture (2x TY, kanamycin, IPTG)
Experimental: The site of crosslinking of 3 was investigated using protein variants. First, 3 was incubated with C-terminal truncated PHD2 (PHD2_181–402) and a loop deletion variant (deletion of residues 238–250, PHD2Δ). […] Thus, 3 was incubated with PHD2 constructs truncated at residues 402, 410, 414 and 418. […] Crosslinking experiments with PHD2 R411M implied that R411 is not directly involved in crosslinking (Fig. S11, ESI ^†).
Fig. 3 (A) Non-denaturing ESI-MS data on the flexible loop truncated (top) and C-terminal tail tuncated (bottom) versions of PHD2 in the presence of equimolar Fe(II) and 3 (3 hour incubation, 37 °C. Cone voltage: 200 V). A = [PHD2Δ + Fe], B = [PHD2Δ + Fe + 3], C = [PHD2_181–402 + Fe], D = [PHD2_181–402 + Fe + 3]. (B) MS/MS spectrum of the trypsin derived peptide 403[…]411 crosslinked to 3 identified K408 as the site of crosslinking.
Fig. S8 Temperature dependence of the rate of crosslinking of 3 with PHD2. PHD2 (20 µM) was incubated with equimolar Fe(II) and 3 in buffer (50 mM Tris, 150 mM NaCl, pH 7.5) at 4, 20 and 37 °C. The ratio of crosslinking after 1, 2, and 4 h was determined by ESI-MS under denaturing conditions (n = 2), error bars represent 1 standard deviation.
Fig. S9 Ratio of crosslinked PHD2.3 before evaluation of catalytic activity. Labelled peaks correspond to: (A): PHD2, […]

T2 sequence (Q9GZT9 181-402): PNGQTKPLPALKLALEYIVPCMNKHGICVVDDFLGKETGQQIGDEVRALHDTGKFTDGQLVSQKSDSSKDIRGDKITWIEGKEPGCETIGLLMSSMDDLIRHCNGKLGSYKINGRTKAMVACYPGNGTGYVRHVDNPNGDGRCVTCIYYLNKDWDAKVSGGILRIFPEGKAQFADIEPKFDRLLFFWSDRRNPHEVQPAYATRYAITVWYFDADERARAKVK

covalent reaction with KDM4A (KDM4A): did not accrue evidence
crosslinking with C-terminally truncated PHD2 (PHD2_181–402): near completely absent
SMILES: C=CC(=O)Nc1cccc(C(=O)NCC(=O)O)c1O [compound 3]

From publication PMC6350621, “Small-molecules that covalently react with a human prolyl hydroxylase – towards activity modulation and substrate capture” (Chemical Communications (Cambridge, England), 2018)
